Assay results published in patent US11447445B2, “Diabetes and metabolic syndrome treatment with a novel dual modulator of soluble epoxide hydrolase and peroxisome proliferator-activated receptors” (priority 2015, dated 2022).
Values after ≈ are worked out from the molar mass of the structure shown. Like-named read-outs stand apart in the source and are kept apart here.

Assays:
3T3-L1 fibroblasts = assay: Adipocyte differentiation of murine 3T3-L1 cells (Oil Red O staining); format: cell-based; details: 1c 1-10 μM; CIU 10 μM
Method: 3T3-L1 cells were subcultured in DMEM containing 10% newborn calf serum in a humidified atmosphere at 37° C., 5% CO2. […] Briefly, cells were seeded in 6-well plates (2.5×10^6/well). Differentiation was started at day 3 by addition of 1 μg/ml insulin, 0.25 dexamethasone and 0.5 mM isobutylmethylxanthine in DMEM supplemented with 10% fetal calf serum. At day 5 medium was replaced by medium containing only insulin for 2 more days. After this, cells were kept for lipid droplet accumulation in basal medium without additions until day 15.

[1] = system: human primary preadipocytes; assay: Adipocyte differentiation of human primary preadipocytes (Oil Red O staining); format: cell-based; details: 1c 1-10 μM; CIU 10 μM
Method: Human primary preadipocytes were obtained from stromal vascular fraction of subcutaneous fat from anonymous donors undergoing elective cosmetic surgery. Adipose tissue was digested by collagenase solution (0.3 U/ml in 1% BSA/PBS) for 45 min at 37° C. with constant shaking. Floating mature adipocytes were removed and the pellet containing the stromal vascular fraction was resuspended in erythrocyte lysis buffer. […] After 4 days the medium was changed to 3FC medium (QuickDiff medium without dexamethasone, IBMX and rosiglitazone). Adipocytes were cultured for additional 14 days before medium was changed to basal medium consisting of DMEM/Ham's F12 with biotin and panthotenate. This investigation conforms to the ethical principles outlined in the Declaration of Helsinki and was approved by the university ethics committee (Ethik-Kommission des Fachbereichs Medizin der Goethe-Universitat Frankfurt am Main). Total RNA was isolated using PeqGold RNAPure (Peqlab) according to manufacturer's instructions and was transcribed to cDNA using Maxima First Strand cDNA synthesis kit (Thermo Scientific), following manufacturer's instructions. Quantitative PCR was performed with iQ SYBR green Supermix (Bio-Rad) using a CFX96 (Bio-Rad) system. Expression was normalized to actin RNA.

PPARα = target: T1, PPARα (Homo sapiens, UniProt Q07869); format: cell-based
T1 construct: expressed in transfected cells; host or cells: COS-7
T1 sequence (Q07869 239-466): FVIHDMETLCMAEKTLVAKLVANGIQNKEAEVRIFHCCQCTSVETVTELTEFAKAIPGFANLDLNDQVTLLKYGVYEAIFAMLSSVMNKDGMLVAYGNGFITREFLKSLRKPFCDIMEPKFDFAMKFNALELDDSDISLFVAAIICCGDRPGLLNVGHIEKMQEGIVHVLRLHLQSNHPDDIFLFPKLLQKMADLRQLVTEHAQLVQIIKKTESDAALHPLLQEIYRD

[2] = after p.o. 30 mg/kg bw of 1b, all time points
Method: Blood was sampled 15 min, 30 min, 1 h, 2 h, 4 h and 8 h after test item application and only 8 h after vehicle application. Each drug treated mouse was sampled twice (0.25 and 0.5 h, 1 and 2 h, 4 and 8 h) via retro orbital puncture. Blood was collected in tubes containing lithium-heparin, stored on ice and subsequently centrifuged at 6000 rpm for 10 minutes at 4° C. (Heraeus biofuge fresco). The plasma was prepared within 45 min after sampling and kept at −20° C. until being assayed. For further kinetic and dynamic analysis the tissues (brain, liver, abdominal fat) were collected 30 min, 2h and 8 h post dose, after the second plasma sampling of each drug treated mouse. Tissue of the vehicle group was sampled only once, 8 h post dose. A volume of 40 μl acetonitrile containing the internal standard (300 ng/ml Diazepam) was added to 20 μl of mouse plasma sample, plasma calibration standard and plasma QC samples. Samples were vigorously shaken and centrifuged for 10 minutes at 6000 g and 20° C. The particle free supernatant was diluted 1:1 with water. An aliquot was transferred to 200 μl sampler vials and subsequently subjected to LC MS with an injection volume of 20 pl. The brain samples were homogenized in PBS (1+1, w/v) using the Precellys 24/Dual homogenizer. A volume of 20 μl of the brain homogenate was mixed (1+1 v/v/) with 20 μl mouse blank plasma. Then 80 μl acetonitrile containing the internal standard (300 ng/ml Diazepam) were added. Samples were vigorously shaken and centrifuged for 10 minutes at 6000 g and 20° C. The particle free supernatant was diluted 1:1 with water. An aliquot was transferred to 200 μl sampler vials and subsequently subjected to LC MS with an injection volume of 20 μl. Mass spectrometry was performed on a TSQ Quantum Discovery Max triple quadrupole mass spectrometer equipped with an electrospray (ESI) interface (Thermo Fisher Scientific, USA) connected to a PC running the standard software Xcalibur 2.0.7. […]

PPARδ = target: T2, PPARδ (Homo sapiens, UniProt Q03181); assay: PPAR transactivation assay in COS-7 cells (Gal4-hPPAR-LBD, luciferase); format: cell-based
T2 construct: expressed in transfected cells; host or cells: COS-7
T2 sequence (Q03181 211-439): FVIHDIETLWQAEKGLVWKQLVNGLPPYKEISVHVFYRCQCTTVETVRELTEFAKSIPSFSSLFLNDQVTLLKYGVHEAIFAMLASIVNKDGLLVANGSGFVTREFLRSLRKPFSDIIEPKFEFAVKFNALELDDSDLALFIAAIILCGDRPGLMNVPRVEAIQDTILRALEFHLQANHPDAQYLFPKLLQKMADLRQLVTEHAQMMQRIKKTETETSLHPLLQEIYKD

recombinant human sEH = target: T3, recombinant human sEH (Homo sapiens, UniProt P34913); assay: biochemical
T3 sequence (P34913 1-555): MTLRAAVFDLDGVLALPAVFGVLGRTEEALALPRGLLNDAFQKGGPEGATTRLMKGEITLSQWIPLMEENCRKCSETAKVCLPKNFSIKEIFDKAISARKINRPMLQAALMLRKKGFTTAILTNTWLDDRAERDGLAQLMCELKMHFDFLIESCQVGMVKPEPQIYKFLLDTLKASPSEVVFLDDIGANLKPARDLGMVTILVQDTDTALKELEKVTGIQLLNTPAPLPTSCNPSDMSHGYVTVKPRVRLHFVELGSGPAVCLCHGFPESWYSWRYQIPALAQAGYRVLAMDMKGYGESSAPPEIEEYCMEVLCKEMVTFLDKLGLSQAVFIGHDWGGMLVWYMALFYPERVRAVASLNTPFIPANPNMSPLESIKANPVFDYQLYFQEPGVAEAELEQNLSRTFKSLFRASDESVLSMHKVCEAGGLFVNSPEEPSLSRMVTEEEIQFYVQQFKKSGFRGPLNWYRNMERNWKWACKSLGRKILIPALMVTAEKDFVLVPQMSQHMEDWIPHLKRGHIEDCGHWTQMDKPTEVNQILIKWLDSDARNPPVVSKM

[3] = Water solubility approximation; format: physicochemical; details: PBS with 0.01% Polysorbate 20, aqueous with cosolvent or surfactant or cyclodextrin, kinetic from dmso stock; PBS pH 7.4, 0.01% Polysorbate 20, 1% DMSO; precipitation at 650 nm; read-out: w.s. (water solubility)
Method: PBS at pH 7.4 with 0.01% Polysorbate 20 (Tween) was combined with 1% of a DMSO solution of the inquired compound in a 96-well transparent flat bottom microtiter plate. Precipitation of the compound was measured at 650 nm with a Tecan Infinite 200 (Tecan Group Ltd, Mannedorf, Switzerland).

PPARγ = target: T4, PPARγ (Homo sapiens, UniProt P37231); assay: cell-based; format: cell-based; details: for EC50 PPARγ: i.a. = inactive; for activation at 10 µM: COS-7, read-out: PPARγ activation @10 μM, at 10 μM, compared to pioglitazone 1 μM
T4 construct: expressed in transfected cells; host or cells: COS-7
T4 sequence (P37231 238-503): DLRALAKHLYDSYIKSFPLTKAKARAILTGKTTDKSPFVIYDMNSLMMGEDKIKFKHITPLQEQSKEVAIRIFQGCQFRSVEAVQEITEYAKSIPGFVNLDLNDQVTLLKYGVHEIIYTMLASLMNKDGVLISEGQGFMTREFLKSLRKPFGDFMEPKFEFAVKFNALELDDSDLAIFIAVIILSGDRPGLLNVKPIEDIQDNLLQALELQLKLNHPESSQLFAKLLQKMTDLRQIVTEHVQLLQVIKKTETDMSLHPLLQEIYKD
Method: COS-7 cells (PPAR) were grown in DMEM high glucose, supplemented with 10% fetal calf serum (FCS), 1% sodium pyruvate (SP) and 1% penicillin/streptomycin (PS) at 37° C. and 5% CO2. Used plasmids for PPAR transactivation assay are shown under supporting informations.
The day before transfection, COS-7 cells were seeded in 96-well plates with a density of 30,000 cells per well. Transient transfection was carried out using Lipofectamine LTX reagent (Invitrogen, Carlsbad, Calif., USA) according to the manufacturer's protocol with pFR-Luc (Stratagene), pRL-SV40 (Promega) and the Ga14-fusion receptor plasmids (pFA-CMV-hPPAR-LBD) of the respective PPAR subtype. 5 h after transfection, medium was changed to DMEM without phenol red and 10% FCS, supplemented with 1% SP, 1% PS and 1% L-glutamine, now additionally containing 0.1% DMSO and the respective test compound or 0.1% DMSO alone as untreated control. Each concentration was tested in triplicate wells and each experiment was repeated independently at least three times. Following overnight incubation with the test compounds, cells were assayed for luciferase activity using Dual-Glo™ Luciferase Assay System (Promega) according to the manufacturer's protocol. Luminescence was measured with an Infinite m200 luminometer (Tecan Deutschland GmbH). Each concentration of the compounds was tested in triplicate wells. Normalization for transfection efficacy and cell growth was done by division of the firefly luciferase data by renilla luciferase data resulting in relative light units. Activation factors were obtained by dividing by DMSO control. […] All compounds were evaluated by comparison of the achieved maximum effect to that of the reference compound (pioglitazone for PPARγ, GW7647 for PPARa, and L165041 for PPARS each with 1 μM). Data are expressed as mean±SE; n≥3.
The Gal4-fusion receptor plasmids pFA-CMV-PPARa-LBD, pFA-CMV-PPARS-LBD and pFA-CMV-PPARγ-LBD containing the hinge region and ligand binding domain (LBD) for each of the PPAR subtypes, respectively, were constructed by integrating cDNA fragments obtained from PCR amplification of human monocytes into the SmaI/XbaI cleavage site of the pFA-CMV vector (Stratagene, La Jolla, Calif., USA) and have already been published. […] Frame and sequence of the fusion receptors were verified by sequencing. pFR-Luc (Stratagene) was used as reporter plasmid and pRL-SV40 (Promega) for normalization of transfection efficacy and cell growth.

[4] = read-out: sEH IC50 / inhibitory potency (unit inferred)

Compound	EC50 PPARα (PPARα; i.a. = inactive)	EC50 PPARδ (PPARδ; i.a. = inactive)	IC50 (recombinant human sEH; read-out: IC50 sEH (converted)) [nM]	solubility [3] [µM]	EC50 PPARγ (PPARγ)	further results
O=C(Nc1ccc(I)cc1)NC1CCCCC1 [CIU, N-cyclohexyl-N′-iodophenyl urea, reference compound]						adipocyte differentiation (Oil-Red O) (3T3-L1 fibroblasts): able to start adipocyte differentiation; adipocyte differentiation (Oil-Red O) [1]: not able to start differentiation
CCOC(=O)C(CC)Cc1ccc(C(=O)NCc2ccccc2C(F)(F)F)cc1 (stereo not shown) [Compound 1b, Ethyl 2-ethyl 3-[4-(N-((2-trifluoromethyl)benzyl)benzamide)]propanoate]	i.a.	i.a.	44 ± 5			1b in plasma [2]: not detected
CCOC(=O)C(CC)Cc1ccc(C(=O)NCc2ccccc2Br)cc1 (stereo not shown) [Compound 5b, Ethyl 2-ethyl 3-[4-(N-((2-bromo)benzyl)benzamide)]propanoate]	n.t. i.a. i.a. n.t.	n.t. i.a. i.a. n.t.		25 (≈ 10.5 µg/mL)	i.a.	
O=C(O)c1ccc(-c2ccc(C(=O)NCc3ccccc3C(F)(F)F)cc2)cc1 [Compound 25]			170	5 (≈ 2 µg/mL)		EC50 PPARα (PPARα): i.a.; EC50 PPARδ (PPARδ): i.a.; activation at 10 µM (PPARγ): ~30%
O=C(O)c1cccc(-c2ccc(C(=O)NCc3ccccc3C(F)(F)F)cc2)c1 [Compound 26]						EC50 PPARα (PPARα): i.a.; EC50 PPARδ (PPARδ): i.a.; IC50 (recombinant human sEH; [4]): 1000 nM; activation at 10 µM (PPARγ): ~30%
N#Cc1ccc(C(=O)NCc2ccccc2C(F)(F)F)cc1 [Compound 27, 4-Cyano-N-(2-(trifluoromethyl)benzyl)benzamide]	remained unaffected	remained unaffected			remained unaffected	IC50 (recombinant human sEH; [4]): 64 nM
O=C(NCc1ccccc1C(F)(F)F)c1ccc(-c2nnn[nH]2)cc1 [Compound 28, [N-(2-(Trifluoromethyl)benzyl)benzamid]-4-(1H-tetrazole)]	i.a.	i.a.	5000	500 (≈ 174 µg/mL)	i.a.	
